Test system: 388556-164-R-J1-PDC complex spheroid viability
Test: Anticancer human tumor 388556-164-R-J1-PDC patient-derived colon adenocarcinoma cell line growth inhibition [RAS]
Conditions: for IC50: curve of first compound; for viability, T/C: stronger effect = lower value
How it was run: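 Agents were tested in combination matrices in half-log decrements from a top concentration at or near clinical Cmax (10 microM if undetermined). Targets were multi-cell spheroids of tumour lines plus HUVEC and MSC stromal cells.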
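Note: spheroids exposed to compound for 7 days before readout.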
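Throughout, for viability, T/C: 100% = DMSO vehicle control luminescence.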

## CCc1c2c(nc3ccc(O)cc13)-c1cc3c(c(=O)n1C2)COC(=O)[C@]3(O)CC + CCn1c(-c2cccnc2C(C)OC)c2c3cc(ccc31)N1CCOC(CC(NC(=O)C(C(C)C)N(C)C(=O)C3(F)CCN(C(=O)C#CC(C)(C)N(C)C)CC3)C(=O)N3CCCC(N3)C(=O)OCC(C)(C)C2)C1
Second compound 0.000949 µM
  IC50: 68 nM
Second compound 0.003 µM
  IC50: 74.5 nM
Second compound 0.00949 µM
  IC50: 72 nM
Second compound 0.03 µM
  IC50: 86.1 nM
Second compound 0.0949 µM
  IC50: 69.5 nM
Second compound 0.3 µM
  IC50: 46.7 nM
Second compound 0.000949 µM, first compound 0.000949 µM
  viability, T/C: 107%
Second compound 0.000949 µM, first compound 0.003 µM
  viability, T/C: 98.7%
Second compound 0.000949 µM, first compound 0.00949 µM
  viability, T/C: 87.1%
Second compound 0.000949 µM, first compound 0.03 µM
  viability, T/C: 62.1%
Second compound 0.000949 µM, first compound 0.0949 µM
  viability, T/C: 45.8%
Second compound 0.000949 µM, first compound 0.3 µM
  viability, T/C: 32.1%
Second compound 0.003 µM, first compound 0.000949 µM
  viability, T/C: 111%
Second compound 0.003 µM, first compound 0.003 µM
  viability, T/C: 88.7%
Second compound 0.003 µM, first compound 0.00949 µM
  viability, T/C: 83.6%
Second compound 0.003 µM, first compound 0.03 µM
  viability, T/C: 61.4%
Second compound 0.003 µM, first compound 0.0949 µM
  viability, T/C: 47.3%
Second compound 0.003 µM, first compound 0.3 µM
  viability, T/C: 29.1%
Second compound 0.00949 µM, first compound 0.000949 µM
  viability, T/C: 104%
Second compound 0.00949 µM, first compound 0.003 µM
  viability, T/C: 96.5%
Second compound 0.00949 µM, first compound 0.00949 µM
  viability, T/C: 83.8%
Second compound 0.00949 µM, first compound 0.03 µM
  viability, T/C: 63.6%
Second compound 0.00949 µM, first compound 0.0949 µM
  viability, T/C: 46.2%
Second compound 0.00949 µM, first compound 0.3 µM
  viability, T/C: 31.1%
Second compound 0.03 µM, first compound 0.000949 µM
  viability, T/C: 106%
Second compound 0.03 µM, first compound 0.003 µM
  viability, T/C: 96.8%
Second compound 0.03 µM, first compound 0.00949 µM
  viability, T/C: 78.2%
Second compound 0.03 µM, first compound 0.03 µM
  viability, T/C: 65.5%
Second compound 0.03 µM, first compound 0.0949 µM
  viability, T/C: 52.7%
Second compound 0.03 µM, first compound 0.3 µM
  viability, T/C: 27%
Second compound 0.0949 µM, first compound 0.000949 µM
  viability, T/C: 93.3%
Second compound 0.0949 µM, first compound 0.003 µM
  viability, T/C: 90%
Second compound 0.0949 µM, first compound 0.00949 µM
  viability, T/C: 80.4%
Second compound 0.0949 µM, first compound 0.03 µM
  viability, T/C: 63.7%
Second compound 0.0949 µM, first compound 0.0949 µM
  viability, T/C: 45.3%
Second compound 0.0949 µM, first compound 0.3 µM
  viability, T/C: 25.5%
Second compound 0.3 µM, first compound 0.000949 µM
  viability, T/C: 92.4%
Second compound 0.3 µM, first compound 0.003 µM
  viability, T/C: 89.7%
Second compound 0.3 µM, first compound 0.00949 µM
  viability, T/C: 72.2%
Second compound 0.3 µM, first compound 0.03 µM
  viability, T/C: 57.3%
Second compound 0.3 µM, first compound 0.0949 µM
  viability, T/C: 39.1%
Second compound 0.3 µM, first compound 0.3 µM
  viability, T/C: 21.4%

Source: PubChem BioAssay AID2060907 (Molecular Pharmacology Branch, DTP, NCI, 2025)
